Measured values from PubChem BioAssay AID286 (DTP/NCI, 2004).
Several values for one entry are separate records, joined by “and”; a condition that tells them apart may be missing. Identical values can stand only once. Toxic doses and inconclusive results are not listed.

System: BDF1 mice, M5076 sarcoma ip, median survival T/C
Assay: NCI In Vivo Anticancer Drug Screen. Data for tumor model Sarcoma M5076 (intraperitoneal) in B6D2F1 (BDF1) mice
Conditions: endpoint: median survival time, higher = longer survival
Method: The antitumor activity of compounds was measured in mice bearing transplantable tumors. Survival or tumor size were measured and the results are expressed as the measurement made in the treated group (T) divided by the measurement made in the vehicle treated control group (C). The tumor model used in this assay is Sarcoma M5076 (intraperitoneal) in B6D2F1 (BDF1) mice

With `CN(C)CCN1C(=O)c2cccc3cc(N)cc(c23)C1=O` the T/C (dose: 4.5 mg/kg/injection, schedule: Q04DX004 (ip), vehicle: acid diluted with saline) was 109 % of control, the T/C (dose: 9.0 mg/kg/injection, schedule: Q04DX004 (ip), vehicle: acid diluted with saline) was 107 % of control and the T/C (dose: 18.0 mg/kg/injection, schedule: Q04DX004 (ip), vehicle: acid diluted with saline) was 115 % of control.
For `O=c1[nH]cc(F)c(=O)[nH]1`, the T/C (dose: 6.25 mg/kg/injection, schedule: Q04DX005 (ip), vehicle: saline) was 185 % of control, the T/C (dose: 16.0 mg/kg/injection, schedule: Q01DX009 (ip), vehicle: saline) was 117 % of control and the T/C (dose: 21.6 mg/kg/injection, schedule: Q04DX004 (ip), vehicle: saline) was 123 % of control. The T/C (dose: 50.0 mg/kg/injection, schedule: Q04DX005 (ip), vehicle: saline) was 112 % of control, the T/C (dose: 100.0 mg/kg/injection, schedule: Q04DX004 (ip), vehicle: saline) was 154 % of control and the T/C (dose: 100.0 mg/kg/injection, schedule: Q04DX005 (ip), vehicle: saline) was 176 % of control.
For `CS(C)(O)NC(N)=O`, the T/C (dose: 50.0 mg/kg/injection, schedule: Q04DX004 (ip), vehicle: water) was 104 % of control, the T/C (dose: 100.0 mg/kg/injection, schedule: Q04DX004 (ip), vehicle: water) was 102 % of control and the T/C (dose: 200.0 mg/kg/injection, schedule: Q04DX004 (ip), vehicle: water) was 104 % of control. For the same compound, the T/C (dose: 400.0 mg/kg/injection, schedule: Q04DX004 (ip), vehicle: water) was 100 % of control and the T/C (dose: 800.0 mg/kg/injection, schedule: Q04DX004 (ip), vehicle: water) was 107 % of control.
`C=CCOc1cc2c(cc1C(C)c1ccc(OC)cc1)OCO2` (stereo not given) was tested, and the T/C (dose: 25.0 mg/kg/injection, schedule: Q04DX004 (ip), vehicle: Klucel (hydroxypropylcellulose) (HPC)) was 104 % of control, the T/C (dose: 50.0 mg/kg/injection, schedule: Q04DX004 (ip), vehicle: Klucel (hydroxypropylcellulose) (HPC)) was 118 % of control and the T/C (dose: 100.0 mg/kg/injection, schedule: Q04DX004 (ip), vehicle: Klucel (hydroxypropylcellulose) (HPC)) was 102 % of control. The T/C (dose: 200.0 mg/kg/injection, schedule: Q04DX004 (ip), vehicle: Klucel (hydroxypropylcellulose) (HPC)) was 118 % of control and the T/C (dose: 400.0 mg/kg/injection, schedule: Q04DX004 (ip), vehicle: Klucel (hydroxypropylcellulose) (HPC)) was 214 % of control.
With `COc1cc2cc3c(c(O)c2c(O)c1/C=C/C(C)C)C(=O)CC(C)(OC(C)=O)C3` (stereo not given) the T/C (dose: 0.31 mg/kg/injection, schedule: Q01DX009 (ip), vehicle: Klucel (hydroxypropylcellulose) (HPC)) was 111 % of control, the T/C (dose: 0.63 mg/kg/injection, schedule: Q01DX009 (ip), vehicle: Klucel (hydroxypropylcellulose) (HPC)) was 108 % of control and 115 % of control and the T/C (dose: 1.25 mg/kg/injection, schedule: Q01DX009 (ip), vehicle: Klucel (hydroxypropylcellulose) (HPC)) was 111 % of control and 119 % of control.
With `CC(/C=N/N=C(N)N)=N\N=C(N)N` the T/C (dose: 32.4 mg/kg/injection, schedule: Q04DX005 (ip), vehicle: saline) was 110 % of control, the T/C (dose: 54.0 mg/kg/injection, schedule: Q04DX005 (ip), vehicle: saline) was 96 % of control and the T/C (dose: 90.0 mg/kg/injection, schedule: Q04DX005 (ip), vehicle: saline) was 110 % of control.
With `CCN(CC)CCCNc1nccc2c(C)c3[nH]c4ccncc4c3cc12` the T/C (dose: 0.63 mg/kg/injection, schedule: Q04DX004 (ip), vehicle: other) was 152 % of control, the T/C (dose: 1.25 mg/kg/injection, schedule: Q04DX004 (ip), vehicle: other) was 191 % of control and the T/C (dose: 2.5 mg/kg/injection, schedule: Q04DX004 (ip), vehicle: other) was 179 % of control. For the same compound, the T/C (dose: 5.0 mg/kg/injection, schedule: Q04DX004 (ip), vehicle: other) was 260 % of control and the T/C (dose: 10.0 mg/kg/injection, schedule: Q04DX004 (ip), vehicle: other) was 208 % of control.
For `O=C1c2ccccc2C(=O)c2c(NCCNCCO)ccc(NCCNCCO)c21`, the T/C (dose: 5.0 mg/kg/injection, schedule: Q04DX005 (ip), vehicle: saline) was 277 % of control and the T/C (dose: 10.0 mg/kg/injection, schedule: Q04DX005 (ip), vehicle: saline) was 357 % of control.
In the case of `COC(=O)[C@@]12OC[C@]34[C@H]([C@@H](O)[C@@H]1O)[C@@]1(C)CC(=O)C(O)=C(C)[C@@H]1C[C@H]3OC(=O)[C@H](OC(=O)/C=C(\C)C(C)C)[C@@H]24`, the T/C (dose: 0.12 mg/kg/injection, schedule: Q04DX004 (ip), vehicle: saline) is reported as 104 % of control and 107 % of control and 113 % of control, the T/C (dose: 0.12 mg/kg/injection, schedule: Q04DX005 (ip), vehicle: saline) is reported as 108 % of control (2×) and 116 % of control and the T/C (dose: 0.13 mg/kg/injection, schedule: Q04DX004 (ip), vehicle: saline) is reported as 111 % of control and 114 % of control. For the same compound, the T/C (dose: 0.13 mg/kg/injection, schedule: Q04DX005 (ip), vehicle: saline) was 106 % of control and 114 % of control.
In the case of `CSC1SCC2C(=O)N(C)C(C(C)C)C(=O)OCC(NC(=O)c3cnc4ccccc4n3)C(=O)NC(C)C(=O)N(C)C1C(=O)N(C)C(C(C)C)C(=O)OCC(NC(=O)c1cnc3ccccc3n1)C(=O)NC(C)C(=O)N2C` (stereo not given), the T/C (dose: 25.0 micrograms/kg/injection, schedule: Q01DX009 (ip), vehicle: saline with Tween-80) is reported as 157 % of control, the T/C (dose: 50.0 micrograms/kg/injection, schedule: Q01DX009 (ip), vehicle: saline with Tween-80) is reported as 177 % of control and the T/C (dose: 100.0 micrograms/kg/injection, schedule: Q01DX009 (ip), vehicle: saline with Tween-80) is reported as 201 % of control.
For `C/C(=N\NC(=S)N1CC2CCC(CC2)C1)c1nccs1`, the T/C (dose: 12.5 mg/kg/injection, schedule: Q04DX004 (ip), vehicle: saline with Tween-80) was 107 % of control and the T/C (dose: 25.0 mg/kg/injection, schedule: Q04DX004 (ip), vehicle: saline with Tween-80) was 106 % of control.
`OC(CBr)C(O)C(O)C(O)CBr` (stereo not given) was tested, and the T/C (dose: 50.0 mg/kg/injection, schedule: Q04DX004 (ip), vehicle: saline with Tween-80) was 111 % of control, the T/C (dose: 100.0 mg/kg/injection, schedule: Q04DX004 (ip), vehicle: saline with Tween-80) was 114 % of control and the T/C (dose: 108.0 mg/kg/injection, schedule: Q04DX005 (ip), vehicle: saline with Tween-80) was 122 % of control. The T/C (dose: 200.0 mg/kg/injection, schedule: Q04DX004 (ip), vehicle: saline with Tween-80) was 114 % of control, the T/C (dose: 400.0 mg/kg/injection, schedule: Q04DX004 (ip), vehicle: saline with Tween-80) was 114 % of control and the T/C (dose: 500.0 mg/kg/injection, schedule: Q04DX005 (ip), vehicle: saline with Tween-80) was 176 % of control. The T/C (dose: 800.0 mg/kg/injection, schedule: Q04DX004 (ip), vehicle: saline with Tween-80) was 108 % of control and the T/C (dose: 833.0 mg/kg/injection, schedule: Q04DX005 (ip), vehicle: saline with Tween-80) was 176 % of control.
`COC1C(O)CC(OC2CC(Oc3cc4cc5c(c(O)c4c(O)c3C)C(=O)[C@@H](OC3CC(OC4CC(OC6CC(C)(O)C(OC(C)=O)C(C)O6)C(O)C(C)O4)C(O)C(C)O3)[C@H]([C@H](OC)C(=O)[C@@H](O)[C@@H](C)O)C5)OC(C)C2OC(C)=O)OC1C` (stereo not given in full) was tested, and the T/C (dose: 37.5 micrograms/kg/injection, schedule: Q01DX009 (ip), vehicle: water) was 168 % of control and the T/C (dose: 75.0 micrograms/kg/injection, schedule: Q01DX009 (ip), vehicle: water) was 163 % of control.
With `O=C1N[C@H]2[C@H](O)[C@H](O)[C@@H](O)[C@H](O)[C@@H]2c2cc3c(c(O)c21)OCO3` the T/C (dose: 0.38 mg/kg/injection, schedule: Q01DX009 (ip), vehicle: saline + alcohol) was 153 % of control, the T/C (dose: 0.75 mg/kg/injection, schedule: Q01DX009 (ip), vehicle: saline + alcohol) was 159 % of control and the T/C (dose: 1.5 mg/kg/injection, schedule: Q01DX009 (ip), vehicle: saline + alcohol) was 161 % of control and 166 % of control. The T/C (dose: 3.0 mg/kg/injection, schedule: Q01DX009 (ip), vehicle: saline + alcohol) was 184 % of control and 165 % of control.
